Data: ChEMBL document CHEMBL1201862, “PubChem BioAssay data set” (2004)
Calls of active or inactive are those of the source.

Assays:
[1] = StAR promoter reporter inhibition counter-screen, dose response, counter-screen for LRH-1 inverse agonist project, cell-based, luminescence, luciferase reporter (AID 651969); format: functional
[2] = target: Steroidogenic factor 1 (Homo sapiens, UniProt Q13285); assay: Counterscreen for inverse agonists of the liver receptor homolog-1 (LRH-1; NR5A2): Luminescence-based cell-based high throughput dose response assay to identify inverse agonists of the Steroidogenic Factor 1 Nuclear Receptor (SF1; NR5A1).; format: functional
Chain of Steroidogenic factor 1 (Q13285 whole entry): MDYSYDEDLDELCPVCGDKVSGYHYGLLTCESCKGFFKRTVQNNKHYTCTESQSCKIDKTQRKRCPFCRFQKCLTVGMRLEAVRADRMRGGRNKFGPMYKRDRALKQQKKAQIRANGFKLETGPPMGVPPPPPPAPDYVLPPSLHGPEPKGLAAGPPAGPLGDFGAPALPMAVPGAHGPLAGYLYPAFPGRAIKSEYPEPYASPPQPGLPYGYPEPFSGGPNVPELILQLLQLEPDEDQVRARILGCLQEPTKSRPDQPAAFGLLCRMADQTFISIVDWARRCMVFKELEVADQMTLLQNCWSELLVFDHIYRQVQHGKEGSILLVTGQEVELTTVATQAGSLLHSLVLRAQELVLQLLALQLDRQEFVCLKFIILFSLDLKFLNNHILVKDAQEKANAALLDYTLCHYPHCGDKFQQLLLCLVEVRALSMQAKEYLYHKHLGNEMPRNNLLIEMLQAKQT

[3] = target: Nuclear receptor subfamily 5 group A member 2 (Homo sapiens, UniProt O00482); format: functional, cell-based;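 also: HEK293T cells transfected with LRH-1 and a StAR promoter luciferase reporter; potency for inhibitors that lower LRH-1 driven reporter light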
Chain of Nuclear receptor subfamily 5 group A member 2 (O00482 whole entry): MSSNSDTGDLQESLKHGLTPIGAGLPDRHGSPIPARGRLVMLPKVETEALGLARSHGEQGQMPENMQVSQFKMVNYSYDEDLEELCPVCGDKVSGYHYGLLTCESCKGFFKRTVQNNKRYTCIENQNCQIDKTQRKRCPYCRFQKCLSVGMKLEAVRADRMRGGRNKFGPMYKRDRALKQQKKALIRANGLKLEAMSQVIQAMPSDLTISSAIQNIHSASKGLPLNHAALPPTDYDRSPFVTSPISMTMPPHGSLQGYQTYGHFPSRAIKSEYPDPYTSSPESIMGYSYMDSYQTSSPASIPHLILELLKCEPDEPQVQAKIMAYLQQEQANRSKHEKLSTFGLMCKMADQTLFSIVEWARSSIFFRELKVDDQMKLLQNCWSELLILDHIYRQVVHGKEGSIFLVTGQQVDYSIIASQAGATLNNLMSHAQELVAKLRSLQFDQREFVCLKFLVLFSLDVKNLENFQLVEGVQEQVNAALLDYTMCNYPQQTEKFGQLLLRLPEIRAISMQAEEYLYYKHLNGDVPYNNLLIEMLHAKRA

[4] = target: T1, Caspase-3 (Homo sapiens, UniProt P42574); format: functional;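 also: Dose-response selectivity test against caspase-3 for candidate inhibitors of sentrin-specific proteases (SENPs)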
T1 sequence (P42574 whole entry): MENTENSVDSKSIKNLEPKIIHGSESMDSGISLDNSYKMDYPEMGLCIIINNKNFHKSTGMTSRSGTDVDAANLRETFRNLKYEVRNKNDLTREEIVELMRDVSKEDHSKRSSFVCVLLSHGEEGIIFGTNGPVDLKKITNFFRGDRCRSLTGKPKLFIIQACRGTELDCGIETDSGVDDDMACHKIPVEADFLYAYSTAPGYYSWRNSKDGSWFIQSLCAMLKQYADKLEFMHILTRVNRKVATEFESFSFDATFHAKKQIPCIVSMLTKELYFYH

[5] = target: T2, Sentrin-specific protease 6 (Homo sapiens, UniProt Q9GZR1); format: functional;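 also: Luminescence-based dose-response confirmatory assay of SENP6 inhibition, following up an ultra-high-throughput screen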
T2 sequence (Q9GZR1 whole entry): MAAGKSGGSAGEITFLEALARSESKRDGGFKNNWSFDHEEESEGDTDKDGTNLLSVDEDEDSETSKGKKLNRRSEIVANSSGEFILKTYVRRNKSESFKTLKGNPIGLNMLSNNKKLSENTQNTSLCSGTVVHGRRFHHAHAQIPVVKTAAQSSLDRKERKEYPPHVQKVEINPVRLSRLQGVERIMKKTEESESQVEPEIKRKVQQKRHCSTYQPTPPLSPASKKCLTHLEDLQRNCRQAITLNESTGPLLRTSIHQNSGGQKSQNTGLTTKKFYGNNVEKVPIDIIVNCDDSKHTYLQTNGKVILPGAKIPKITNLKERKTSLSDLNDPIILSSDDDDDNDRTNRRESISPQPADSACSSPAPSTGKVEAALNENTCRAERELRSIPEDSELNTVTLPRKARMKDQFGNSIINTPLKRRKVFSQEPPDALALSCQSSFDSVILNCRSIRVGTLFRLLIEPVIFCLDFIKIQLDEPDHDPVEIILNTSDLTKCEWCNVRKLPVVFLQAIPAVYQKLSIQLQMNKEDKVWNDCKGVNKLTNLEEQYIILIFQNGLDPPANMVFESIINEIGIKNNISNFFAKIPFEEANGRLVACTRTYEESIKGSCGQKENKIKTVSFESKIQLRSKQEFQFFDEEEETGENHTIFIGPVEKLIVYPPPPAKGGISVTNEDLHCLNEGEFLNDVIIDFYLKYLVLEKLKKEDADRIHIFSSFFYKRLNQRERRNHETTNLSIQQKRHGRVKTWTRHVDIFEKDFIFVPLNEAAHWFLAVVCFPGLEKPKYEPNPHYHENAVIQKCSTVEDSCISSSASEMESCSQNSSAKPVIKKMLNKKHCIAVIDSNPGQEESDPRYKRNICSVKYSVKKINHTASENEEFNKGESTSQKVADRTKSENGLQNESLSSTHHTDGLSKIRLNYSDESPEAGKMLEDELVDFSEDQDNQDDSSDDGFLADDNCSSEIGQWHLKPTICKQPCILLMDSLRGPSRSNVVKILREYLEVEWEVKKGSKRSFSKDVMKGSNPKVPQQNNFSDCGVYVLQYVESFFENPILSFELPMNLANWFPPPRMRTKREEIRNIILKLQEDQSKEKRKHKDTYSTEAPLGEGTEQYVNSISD

[6] = target: T3, Sentrin-specific protease 8 (Homo sapiens, UniProt Q96LD8); format: functional;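 also: luminescence read-out of SENP8 inhibition, dose-response confirmation following an ultra-high-throughput screen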
T3 sequence (Q96LD8 whole entry): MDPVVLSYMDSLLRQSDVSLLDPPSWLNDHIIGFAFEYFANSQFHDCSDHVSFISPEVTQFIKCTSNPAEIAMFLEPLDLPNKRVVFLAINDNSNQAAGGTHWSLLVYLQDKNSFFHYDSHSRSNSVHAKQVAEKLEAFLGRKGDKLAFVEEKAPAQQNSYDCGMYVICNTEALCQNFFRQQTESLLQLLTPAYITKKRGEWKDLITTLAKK

[7] = target: T4, Sentrin-specific protease 7 (Homo sapiens, UniProt Q9BQF6); format: functional;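 also: Luminescence-based dose-response confirmation of ultra-high-throughput screening hits, measuring inhibition of SENP7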
T4 sequence (Q9BQF6 whole entry): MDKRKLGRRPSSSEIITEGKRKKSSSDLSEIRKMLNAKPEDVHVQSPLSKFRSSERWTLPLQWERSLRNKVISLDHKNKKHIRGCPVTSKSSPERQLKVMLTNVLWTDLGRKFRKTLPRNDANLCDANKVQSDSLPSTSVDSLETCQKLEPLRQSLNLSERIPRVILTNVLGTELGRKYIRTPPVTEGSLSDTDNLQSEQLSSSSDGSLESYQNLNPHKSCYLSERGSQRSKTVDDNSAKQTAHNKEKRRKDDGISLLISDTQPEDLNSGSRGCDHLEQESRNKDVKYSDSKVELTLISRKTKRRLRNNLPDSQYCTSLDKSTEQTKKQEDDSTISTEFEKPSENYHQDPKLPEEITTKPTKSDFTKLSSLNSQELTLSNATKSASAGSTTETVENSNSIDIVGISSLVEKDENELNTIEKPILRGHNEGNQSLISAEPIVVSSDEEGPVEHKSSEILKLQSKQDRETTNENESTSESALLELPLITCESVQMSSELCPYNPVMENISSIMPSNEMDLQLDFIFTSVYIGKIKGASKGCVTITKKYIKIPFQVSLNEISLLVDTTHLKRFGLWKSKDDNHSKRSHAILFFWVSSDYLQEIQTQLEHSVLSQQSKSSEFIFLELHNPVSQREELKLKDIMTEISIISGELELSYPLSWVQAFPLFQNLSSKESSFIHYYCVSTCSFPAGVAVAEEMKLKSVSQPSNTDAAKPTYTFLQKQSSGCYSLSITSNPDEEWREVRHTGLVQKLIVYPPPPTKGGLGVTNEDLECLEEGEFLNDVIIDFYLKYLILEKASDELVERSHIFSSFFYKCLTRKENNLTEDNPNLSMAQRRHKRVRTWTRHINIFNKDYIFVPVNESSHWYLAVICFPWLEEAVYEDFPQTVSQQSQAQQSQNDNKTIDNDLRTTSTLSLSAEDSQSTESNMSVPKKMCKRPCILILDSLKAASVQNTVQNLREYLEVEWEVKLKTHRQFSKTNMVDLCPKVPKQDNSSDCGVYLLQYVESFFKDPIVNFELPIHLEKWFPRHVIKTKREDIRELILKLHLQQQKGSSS

[8] = target: T5, Rac GTPase-activating protein 1 (Homo sapiens, UniProt Q9H0H5); assay: MgcRacGAP GTPase-activating activity inhibitors, confirmation, biochemical, ADP Hunter fluorescence, primary and confirmatory (AID 624330); format: functional
T5 sequence (Q9H0H5 whole entry): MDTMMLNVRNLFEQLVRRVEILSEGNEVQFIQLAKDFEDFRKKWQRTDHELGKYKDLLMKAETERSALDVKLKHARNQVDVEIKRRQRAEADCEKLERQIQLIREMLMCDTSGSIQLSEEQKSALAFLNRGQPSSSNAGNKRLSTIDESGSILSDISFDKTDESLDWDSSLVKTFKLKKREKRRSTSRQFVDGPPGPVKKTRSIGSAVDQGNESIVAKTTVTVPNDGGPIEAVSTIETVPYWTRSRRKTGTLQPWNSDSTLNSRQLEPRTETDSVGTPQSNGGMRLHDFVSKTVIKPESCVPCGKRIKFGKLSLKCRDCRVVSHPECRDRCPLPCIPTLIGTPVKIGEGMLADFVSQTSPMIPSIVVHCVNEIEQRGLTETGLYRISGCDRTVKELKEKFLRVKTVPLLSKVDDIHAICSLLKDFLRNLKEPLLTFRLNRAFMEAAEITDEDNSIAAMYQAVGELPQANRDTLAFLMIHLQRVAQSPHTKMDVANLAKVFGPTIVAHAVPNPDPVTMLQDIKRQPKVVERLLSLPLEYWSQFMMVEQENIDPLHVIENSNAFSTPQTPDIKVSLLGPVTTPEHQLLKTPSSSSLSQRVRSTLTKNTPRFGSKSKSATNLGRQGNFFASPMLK

[9] = target: Luciferin 4-monooxygenase (Photinus pyralis, UniProt P08659); assay: firefly luciferase enzyme inhibitors, dose response, biochemical, luminescence (AID 1891)
Chain of Luciferin 4-monooxygenase (P08659 whole entry): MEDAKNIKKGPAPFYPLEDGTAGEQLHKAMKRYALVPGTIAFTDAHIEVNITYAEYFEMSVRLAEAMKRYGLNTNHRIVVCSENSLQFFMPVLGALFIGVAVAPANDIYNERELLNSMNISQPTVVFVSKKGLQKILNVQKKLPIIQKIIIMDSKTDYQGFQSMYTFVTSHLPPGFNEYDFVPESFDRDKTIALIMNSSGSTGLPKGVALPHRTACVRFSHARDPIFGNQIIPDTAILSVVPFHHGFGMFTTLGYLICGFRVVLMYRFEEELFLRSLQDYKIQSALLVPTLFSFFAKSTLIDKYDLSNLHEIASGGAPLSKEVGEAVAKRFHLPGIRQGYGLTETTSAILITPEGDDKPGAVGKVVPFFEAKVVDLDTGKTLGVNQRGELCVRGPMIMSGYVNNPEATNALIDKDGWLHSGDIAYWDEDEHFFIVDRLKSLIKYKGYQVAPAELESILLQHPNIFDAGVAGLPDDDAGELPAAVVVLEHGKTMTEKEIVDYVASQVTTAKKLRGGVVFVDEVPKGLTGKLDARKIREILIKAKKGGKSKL

[10] = HeLa cell cytotoxicity, dose response, cytotoxicity control for MgcRacGAP inhibitor project (AID 624300); format: functional
[11] = Luminescence Cell-Based Dose Confirmation HTS to Identify Inhibitors of Platelet Dense Granule Release. [Related pubchem assays: 1663 (Primary HTS), 1678 (Summary of Project)]; format: functional
[12] = target: T6, Polyadenylate-binding protein 1 (Homo sapiens, UniProt P11940); assay: PABP1 MLLE–PAM2 binding inhibitor potency, dose response, biochemical, fluorescence polarization, FITC-PAM2 peptide (AID 602259); format: functional; conditions: read-out: IC50_Mean
T6 sequence (P11940 whole entry): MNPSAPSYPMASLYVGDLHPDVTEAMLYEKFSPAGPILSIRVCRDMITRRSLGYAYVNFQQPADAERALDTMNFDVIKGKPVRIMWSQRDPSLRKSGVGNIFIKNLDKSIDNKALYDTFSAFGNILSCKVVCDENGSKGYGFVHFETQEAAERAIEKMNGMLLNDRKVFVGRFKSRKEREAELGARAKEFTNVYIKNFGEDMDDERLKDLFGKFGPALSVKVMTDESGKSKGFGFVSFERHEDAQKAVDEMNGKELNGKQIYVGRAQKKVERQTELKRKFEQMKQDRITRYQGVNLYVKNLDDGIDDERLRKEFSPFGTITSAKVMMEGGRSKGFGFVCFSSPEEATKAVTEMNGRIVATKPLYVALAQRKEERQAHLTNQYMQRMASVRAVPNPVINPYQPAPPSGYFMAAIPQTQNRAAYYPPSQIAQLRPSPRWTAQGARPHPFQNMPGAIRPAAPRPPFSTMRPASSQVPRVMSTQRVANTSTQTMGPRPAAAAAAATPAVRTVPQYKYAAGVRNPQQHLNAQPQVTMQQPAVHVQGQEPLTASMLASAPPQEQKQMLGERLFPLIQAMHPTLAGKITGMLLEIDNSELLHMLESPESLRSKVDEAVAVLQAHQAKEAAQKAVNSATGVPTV

[13] = target: T6, Polyadenylate-binding protein 1; assay: PABP1 MLLE–PAM2 interaction inhibitors, dose response, miRNA deadenylation inhibitor project, biochemical, fluorescence polarization, Cy5-PAM2 peptide, secondary (AID 602260); format: functional; conditions: read-out: IC50_Mean

| IC50 [4] | IC50 [5] | IC50 [7] | Compound | IC50 [1] | IC50 [2] | IC50 [3] | IC50 [6] | other results |
| --- | --- | --- | --- | --- | --- | --- | --- | --- |
| – | – | – | COc1ccc(C2(C)NC(=O)N(CC(=O)Nc3ccc(C)cc3Br)C2=O)cc1OC (configuration not stated) | 35.9 µM (inactive) | 11.7 µM (inactive) | 35.9 µM (inactive) | – | – |
| > 100 µM (inactive) | 46.9 µM (active) | 11.8 µM (active) | O=C(Nc1cc(Cl)cc(Cl)c1)c1cccc(OC(F)F)c1 | – | – | – | 53.9 µM (active) | – |
| – | – | – | COCCn1c(C)cc(/C=C(\C#N)C(=O)OCC(=O)Nc2ccc(S(N)(=O)=O)cc2)c1C | 35.9 µM (inactive) | 3.99 µM (active) | 35.9 µM (inactive) | – | – |
| 22 µM (active) | 27.4 µM (active) | 6.34 µM (active) | COc1ccc(C(=O)CNc2ccccc2Br)cc1 | – | – | – | 82.8 µM (active) | – |
| – | – | – | CCOc1ccccc1CN(CCc1ccc2c(c1)OCO2)Cc1ccccn1 | – | – | – | – | IC50 [8]: 172 µM (active); EC50 [9]: > 112 µM (not active); CC50 [10]: 100 µM (active); EC50 [11]: > 112 µM (not active) |
| 32 µM (active) | 25 µM (active) | 8.63 µM (active) | c1ccc(Cn2nc(-c3ccccc3)nc2-c2ccccc2)cc1 | – | – | – | 30.4 µM (active) | – |
| – | – | – | COc1ccc(S(=O)(=O)N2CCN(CC(=O)Nc3ccc(C)c(F)c3)CC2)cc1 | 35.9 µM (inactive) | 3.05 µM (active) | 6.16 µM (active) | – | – |
| 34.2 µM (active) | 36.7 µM (active) | 14.8 µM (active) | O=C(CCCN1C(=O)/C(=C/c2ccccc2Cl)SC1=S)NCCCN1CCOCC1 | – | – | – | 43.6 µM (active) | IC50 [12]: > 66 µM (inactive); IC50 [13]: > 66 µM (inactive) |
| 24.6 µM (active) | 7.19 µM (active) | 7.21 µM (active) | O=C(Nc1ccc(Br)cc1)Nc1ccccc1Cl | – | – | – | 26.8 µM (active) | – |
| 40.1 µM (active) | 20.9 µM (active) | 7.37 µM (active) | COc1cccc(C(=O)Oc2ccc3ccc(O)cc3c2)c1 | – | – | – | 17 µM (active) | – |
| – | – | – | COC(=O)c1ccc(NC(=O)CSc2nncn2-c2cccnc2)cc1 | 35.9 µM (inactive) | 14 µM (inactive) | 35.9 µM (inactive) | – | – |
| – | – | – | CCOc1ccc(NC(=O)CSc2nnc(C(C)C)n2CC)cc1 | 35.9 µM (inactive) | 6.03 µM (active) | 35.9 µM (inactive) | – | – |
| – | – | – | CC(O)(c1cccc(F)c1)c1nc(-c2ccc(S(C)(=O)=O)cc2)cs1 (configuration not stated) | 35.9 µM (inactive) | 3.64 µM (active) | 10.3 µM (inactive) | – | – |
| – | – | – | N#Cc1cc([N+](=O)[O-])ccc1NC(=O)COC(=O)C1CCC(=O)N1 (configuration not stated) | 35.9 µM (inactive) | 4.87 µM (active) | 6.37 µM (active) | – | – |
| – | – | – | CCCN1C(=O)/C(=C/c2cc(C)n(C)c2C)S/C1=N/c1ccc(OCC)cc1 | – | – | – | – | CC50 [10]: 100 µM (active) |
